Converted amounts (≈) assume the structure as drawn.
Columns and labels:
[1] = tested on: Saccharomyces cerevisiae ATCC 9763; test: Fungal growth inhibition, S. cerevisiae ATCC 9763; format: cell-based; conditions: ATCC9763, MIC defined as 50% growth inhibition, 24 h, n = 3–6
From the text: (§1) Fungal isolates were purchased from American Type Culture Collection, except for C. glabrata strain Cg003, which was kindly provided by Julius Subik, Comenius University in Bratislava, Slovak Republic. Cg003 is a clinical isolate, characterized to be resistant to fluconazole and itraconazole due to overexpression of the multidrug resistance efflux pumps Cdr1p and Cdr2p. Saccharomyces cerevisiae (ATCC 9763), Candida albicans (ATCC 90028), Candida albicans (SC5314), Candida glabrata (ATCC 90030), Candida glabrata (Cg003) and Candida krusei (ATCC 6258) were grown in Sabouraud broth (40 g/L D-glucose, 10 g/L peptone, pH 5.6) or YPD (10 g/L yeast extract, 20 g/L Bacto-peptone, 20 g/L glucose) medium to mid log phase, aliquoted into 20% (v/v) glycerol and cryopreserved as stocks at -80°C. For each growth assay, cells from these stocks were diluted in sterile water to OD600 = 0.025, which corresponds to a final starting inoculum of 0.5–2.5 x 10^5 CFU/mL. Growth assays were carried out by pipetting 3 μL compound dissolved in DMSO, 100 μL cell suspension and 97 μL 2 x RPMI media (20.8 g/L RPMI-1640 (Sigma-Aldrich catalog number R6504) 330 mM MOPS, 36 g/L glucose) into a microtiter plate and incubating for 24 h at 34°C, followed by OD measurement at 490 nm. The minimum inhibitory concentration (MIC) was defined as 50% growth inhibition of the microorganism as this measurement best represented the antifungal activity of the compounds. Standard errors were typically below 5%.

Candida albicans SC5314 = test: Fungal growth inhibition, C. albicans SC5314; format: cell-based; conditions: MIC defined as 50% growth inhibition, 24 h, n = 3–6
From the text: as §1

Candida krusei ATCC 6258 = test: Fungal growth inhibition, C. krusei; format: cell-based; conditions: Pichia kudriavzevii, ATCC6258; MIC defined as 50% growth inhibition, 24 h, n = 3–6
From the text: as §1

[2] = tested on: Candida glabrata ATCC 90030; test: Fungal growth inhibition, C. glabrata ATCC 90030; format: cell-based; conditions: Nakaseomyces glabratus, ATCC90030; MIC defined as 50% growth inhibition, 24 h, n = 3–6
From the text: as §1

Candida glabrata Cg003 = test: microbe, parasite or virus in culture; format: cell-based; conditions: Nakaseomyces glabratus, CG003, 24 h, read-out: Growth inhibition MIC Candida glabrata Cg003
Experimental: as §1, with “Cg003 is a clinical isolate, characterized to be resistant to fluconazole and itraconazole due to overexpression of the multidrug resistance efflux pumps Cdr1p and Cdr2p.” left out, “nm.” for “nm. The minimum inhibitory concentration (MIC) was defined as 50% growth inhibition of the microorganism as this measurement best represented the antifungal activity of the compounds. Standard errors were typically below 5%.”

HepG2 cells = test: Hep G2 viability assay (XTT); format: cell-based, human; conditions: HepG2 proliferation, 72 h, XTT
Experimental: In each well of a 96 well tissue culture plate (Greiner, catalog number GR-655180) 10,000 human hepatocyte HepG2 cells (Sigma-Aldrich, catalog number 85011430) were plated in 200 μL growth media (EMEM (Sigma-Aldrich, catalog number M2279), 2 mM L-Glutamine (Biological Industries, catalog number 03-020-1B), 1% non-essential amino acids (Biosera, catalog number XC-E1154/100), 10% fetal bovine serum (Biological Industries, catalog number BI-04-007-1A)), and incubated overnight at 37°C and 5% CO2. The following day, fresh growth media plus 2 μL compound in DMSO was added. The plate was incubated for a further 72 h at 37°C and 5% CO2. The media was replaced with 100 μL freshly prepared 0.5 mg/mL XTT sodium salt solution (Sigma-Aldrich, catalog number X4251) in RPMI-1640 (Sigma-Aldrich, catalog number R7509) with 3.83 μg/mL phenazine methosulfate (Sigma-Aldrich, catalog number P9625) and incubated 2–3 h at 37°C and 5% CO2. The color reaction was measured on a Victor X5 plate reader (Perkin-Elmer) at OD450, and the half maximal effective concentration (EC50) was calculated indicating the potency of tetrahydrocarbazole derivatives to inhibit HepG2 cell growth. Tamoxifen (Sigma-Aldrich, catalog number 85256) was used as a positive control compound while DMSO served as a negative control.

[3] = tested on: C. albicans (SC5314) cells; test: Time-kill assay; format: cell-based, Candida albicans; conditions: AMB 0.54 μM, VRC 2.8 μM, 6 and 8 20 μM
Experimental: C. albicans (SC5314) cells (1 x 10^5 CFU/mL) were incubated in 10 mL RPMI-1640 media at 30°C with gentle agitation (150 rpm) in the presence of amphotericin B (0.5 μM), voriconazole (2.8 μM) or tetrahydrocarbazole compound (20 μM). At the indicated time points (0, 3, 6, and 24 h), a 100 μL aliquot was removed, serially diluted (10 fold) in saline (0.9% NaCl), and 30 μL aliquots were spread on YPD agar. CFU were counted after incubation at 30°C for 48 h. C. albicans cells treated with DMSO (1%, v/v) served as a control. 50 CFU/mL was selected as the lower limit of quantitation.

C. albicans cells = test: Post-antifungal effect determination; format: cell-based, Candida albicans; conditions: 1 h exposure of C. albicans; AMB 0.54 μM, VRC 2.8 μM, 6 and 8 20 μM
Experimental: The post-antifungal effect (PAFE) of antifungal drugs on C. albicans was determined as described by others, with modifications. Briefly, 2 × 10^6 CFU/mL C. albicans cells were incubated in 1 mL RPMI-1640 media for 1 h at 30°C with gentle agitation in the presence of amphotericin B (0.54 μM), voriconazole (2.8 μM) or tetrahydrocarbazole compound (20 μM). Cells were subsequently washed in RPMI media 3 times by centrifugation (3 minutes, 5,000 x g) and finally re-suspended in 1 mL fresh RPMI medium and incubated at 30°C for 24 h. At various time intervals, a 100 μL aliquot was removed, serially diluted (10-fold) in saline (0.9% NaCl), and 30 μL aliquots were spread on YPD agar. The agar plates were incubated at 30°C for 48 h and the number of CFU/mL of culture was determined. C. albicans cells treated with DMSO (1%, v/v) served as a control. The number of CFU/mL obtained at specified time intervals was plotted against time (h) following compound removal. An increase in the CFU/mL of culture signifies growth and multiplication of yeast cells. The duration required for the antifungal drug-treated cells to recover from the inhibitory effect of the drug as indicated by an increase in CFU/mL of culture is defined as the PAFE.

Na^+,K^+-ATPase = tested on: Na^+,K^+-ATPase; set-up: method as in PMID 19289472; conditions: cited from earlier work
[4] = target: T1, Saccharomyces cerevisiae Pma1 (Saccharomyces cerevisiae, UniProt P05030); test: ATP hydrolysis inhibition, S. cerevisiae Pma1; format: biochemical; conditions: ATP hydrolysis IC50 Saccharomyces cerevisiae Pma1, library hit compounds, n = 3
T1 construct: containing the full-length cDNA of the S. cerevisiae plasma membrane H^+-ATPase isoform PMA1; made in house; host or cells: Saccharomyces cerevisiae RS72
T1 sequence (P05030 whole entry, canonical isoform): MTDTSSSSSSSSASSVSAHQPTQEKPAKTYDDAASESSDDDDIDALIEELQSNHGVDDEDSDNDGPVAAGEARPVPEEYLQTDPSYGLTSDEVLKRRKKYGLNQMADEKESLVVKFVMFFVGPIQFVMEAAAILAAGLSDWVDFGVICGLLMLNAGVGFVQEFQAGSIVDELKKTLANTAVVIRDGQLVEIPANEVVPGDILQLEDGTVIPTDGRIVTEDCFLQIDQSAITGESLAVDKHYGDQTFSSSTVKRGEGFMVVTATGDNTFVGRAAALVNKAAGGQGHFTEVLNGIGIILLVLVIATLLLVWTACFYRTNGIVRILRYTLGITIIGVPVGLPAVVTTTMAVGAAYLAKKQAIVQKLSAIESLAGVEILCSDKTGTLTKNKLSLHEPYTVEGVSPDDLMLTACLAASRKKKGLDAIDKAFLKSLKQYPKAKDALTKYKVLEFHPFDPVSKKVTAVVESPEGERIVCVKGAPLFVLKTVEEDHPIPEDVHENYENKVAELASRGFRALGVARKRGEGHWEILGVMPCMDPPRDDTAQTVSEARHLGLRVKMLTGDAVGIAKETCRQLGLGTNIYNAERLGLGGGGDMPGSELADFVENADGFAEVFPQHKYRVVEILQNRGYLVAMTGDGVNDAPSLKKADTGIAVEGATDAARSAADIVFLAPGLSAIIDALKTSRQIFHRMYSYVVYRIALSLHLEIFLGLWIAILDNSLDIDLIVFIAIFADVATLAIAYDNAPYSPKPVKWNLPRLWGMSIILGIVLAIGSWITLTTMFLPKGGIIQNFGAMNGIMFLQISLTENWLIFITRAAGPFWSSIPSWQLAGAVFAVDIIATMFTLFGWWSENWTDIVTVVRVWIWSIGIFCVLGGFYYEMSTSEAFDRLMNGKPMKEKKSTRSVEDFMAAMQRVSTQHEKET
Experimental: The compound libraries were purchased from Enamine Ltd, Ukraine and Chembridge Corp, USA. Library screening was performed in 96 well plates format and each compound was screened in the ATP hydrolysis assay at a final concentration of 20 μM. DMSO was used to determine the maximal ATPase activity and a blank with ATP in absence of Pma1 protein was used to determine the level of spontaneous ATP hydrolysis and used to determine background level. The percentage of compound inhibition was evaluated by subtracting the blank from each data point and normalizing to maximal ATP hydrolysis activity. […] Pma1 inhibitory hit compounds (IC50 <20 μM) with antifungal activity on both S. cerevisiae and C. albicans (MIC <100 μM) were re-purchased and re-evaluated to confirm the potency and identity of the compound.
Plasma membranes containing Pma1 were isolated from Saccharomyces cerevisiae RS72 cells containing the full-length cDNA of the S. cerevisiae plasma membrane H^+-ATPase isoform PMA1 under control of the PMA1 promoter as described.
ATPase activity was determined by measuring the amount of liberated phosphate from ATP hydrolysis. The ATPase assay was performed in 96 well plates in a final reaction volume of 60 μL. 0.1–0.2 μg/well of DOC extracted SERCA membrane or the Na^+,K^+-ATPase was used, while 1–2.5 μg/well was used of the Pma1 membrane preparation. Reactions, including protein membrane preparation and various concentrations of exogenously added compounds, were conducted in the following buffers; Pma1 buffer: 17.5 mM MOPS-NaOH pH 7, 7 mM MgSO4, 44 mM KNO3 (vacuolar ATPase inhibitor), 22 mM NaN3 (mitochondrial ATPase inhibitor), 0.22 mM Na2MoO4 (acid phosphatase inhibitor); SERCA buffer: 9 mM MOPS-NaOH pH 7, 2.7 mM MgCl2, 0.1 mM CaCl2 and 72 mM KCl. Na^+,K^+-ATPase buffer: 30 mM MOPS-NaOH pH 7, 40 mM NaCl, 4 mM MgCl2 and 20 mM KCl. Reactions were initiated by the addition of Na-ATP to a final concentration of 2.5 mM (Pma1 and Na^+,K^+-ATPase) or 5 mM (SERCA), followed by 30 minutes incubation at 30°C. […] Absorption was measured at 860 nm after additional 30 minutes incubation at RT.

Saccharomyces cerevisiae = test: Fungal growth inhibition, S. cerevisiae (library hits, Table A); format: cell-based; conditions: MIC defined as 50% growth inhibition, n = 3, baker's yeast
Experimental: (§2) The compound libraries were purchased from Enamine Ltd, Ukraine and Chembridge Corp, USA. Library screening was performed in 96 well plates format and each compound was screened in the ATP hydrolysis assay at a final concentration of 20 μM. DMSO was used to determine the maximal ATPase activity and a blank with ATP in absence of Pma1 protein was used to determine the level of spontaneous ATP hydrolysis and used to determine background level. The percentage of compound inhibition was evaluated by subtracting the blank from each data point and normalizing to maximal ATP hydrolysis activity.
as §1, with “Cg003 is a clinical isolate, characterized to be resistant to fluconazole and itraconazole due to overexpression of the multidrug resistance efflux pumps Cdr1p and Cdr2p.” left out, “nm.” for “nm. The minimum inhibitory concentration (MIC) was defined as 50% growth inhibition of the microorganism as this measurement best represented the antifungal activity of the compounds. Standard errors were typically below 5%.”

Candida albicans = test: Fungal growth inhibition, C. albicans (library hits, Tables A and B); format: cell-based; conditions: ATCC90028, read-out: Growth inhibition MIC Candida albicans
Experimental: as §2
as §1, with “Cg003 is a clinical isolate, characterized to be resistant to fluconazole and itraconazole due to overexpression of the multidrug resistance efflux pumps Cdr1p and Cdr2p.” left out, “nm.” for “nm. The minimum inhibitory concentration (MIC) was defined as 50% growth inhibition of the microorganism as this measurement best represented the antifungal activity of the compounds. Standard errors were typically below 5%.”

[5] = tested on: HEK293 cells expressing the familial Alzheimer’s disease (FAD)-linked presenilin 1 mutation; set-up: method as in PMID 25514752; conditions: HEK293 cells expressing FAD-linked presenilin 1 mutation; cited from earlier work

| Structure (SMILES) | MIC [1] [µM] | MIC (Candida albicans SC5314) [µM] | MIC (Candida krusei ATCC 6258) [µM] | MIC [2] [µM] | MIC (Candida glabrata Cg003) [µM] | IC50 [4] [µM] | MIC (Saccharomyces cerevisiae) [µM] | MIC (Candida albicans) [µM] | further results |
| --- | --- | --- | --- | --- | --- | --- | --- | --- | --- |
| C[C@@H]1[C@H](O)[C@@H](C)/C=C/C=C/C=C/C=C/C=C/C=C/C=C/[C@H](O[C@@H]2O[C@H](C)[C@@H](O)[C@H](N)[C@@H]2O)C[C@@H]2O[C@](O)(C[C@@H](O)C[C@@H](O)[C@H](O)CC[C@@H](O)C[C@@H](O)CC(=O)O[C@H]1C)C[C@H](O)[C@H]2C(=O)O [AMB, amphotericin B, reference compound] | 0.02 ± 0.01 (≈ 0.0185 µg/mL) | 0.1 ± 0.04 (≈ 0.0924 µg/mL) | 0.44 ± 0.34 (≈ 0.407 µg/mL) | 0.1 ± 0.04 (≈ 0.0924 µg/mL) | 0.18 ± 0.08 (≈ 0.166 µg/mL) | – | – | – | EC50 (HepG2 cells): 0.69 ± 0.01 µM; EC50 (HepG2 cells; Homo sapiens, HepG2, 72 h): < 1 µM; Fungicidal or fungistatic activity in time-kill (in words) [3]: fungicidal after 3 h exposure; Post-antifungal effect (PAFE) (C. albicans cells): 7 h |
| CC(=O)C1=C(O)[C@@H]2[C@H]3c4c[nH]c5cccc(c45)C[C@H]3C(C)(C)N2C1=O [CPA, cyclopiazonic acid] | – | – | – | – | – | – | – | – | Activity against Na^+,K^+-ATPase (in words) (Na^+,K^+-ATPase): inactivity |
| Brc1ccc2[nH]c3c(c2c1)CCCC3NCCc1ccccc1 (centres unmarked) [Compound 1] | – | – | – | – | – | 18.2 ± 4.7 | 10 (≈ 3.69 µg/mL) | 20 (≈ 7.39 µg/mL) | Effect on enhanced calcium release from the endoplasmic reticulum (in words) [5]: reduce the enhanced calcium release |
| Brc1ccc2[nH]c3c(c2c1)CCCC3NCc1ccccc1 (centres unmarked) [Compound 2] | – | – | – | – | – | 12.9 ± 3.2 | 12 (≈ 4.26 µg/mL) | 10 (≈ 3.55 µg/mL) | Effect on enhanced calcium release from the endoplasmic reticulum (in words) [5]: reduce the enhanced calcium release |
| Cc1ccc2[nH]c3c(c2c1)CCCC3NCc1ccc(Cl)cc1 (centres unmarked) [Compound 3] | – | – | – | – | – | 14.8 ± 3.5 | 12 (≈ 3.9 µg/mL) | 5 (≈ 1.62 µg/mL) | – |
| OC(Cn1cncn1)(Cn1cncn1)c1ccc(F)cc1F [FLC, fluconazole, reference compound] | 20.7 ± 8.68 (≈ 6.33 µg/mL) | 0.75 ± 0.48 (≈ 0.23 µg/mL) | 67.2 ± 27 (≈ 20.6 µg/mL) | 26.1 (≈ 8 µg/mL) | > 208 | – | – | – | EC50 (HepG2 cells; Homo sapiens): > 50 µM |
| C[C@@H](c1ncncc1F)[C@](O)(Cn1cncn1)c1ccc(F)cc1F [VRC, voriconazole, reference compound] | 0.27 ± 0.19 (≈ 0.0943 µg/mL) | 0.03 ± 0.02 (≈ 0.0105 µg/mL) | 1.02 ± 0.7 (≈ 0.356 µg/mL) | 0.61 ± 0.28 (≈ 0.213 µg/mL) | 6.11 ± 2.64 (≈ 2.13 µg/mL) | – | – | – | EC50 (HepG2 cells; Homo sapiens): > 50 µM; Fungicidal or fungistatic activity in time-kill (in words) [3]: fungistatic activity after both 3 and 24 h of incubation; Post-antifungal effect (PAFE) (C. albicans cells): no significant delay in growth |

— paper PMC5749684, “Tetrahydrocarbazoles are a novel class of potent P-type ATPase inhibitors with antifungal activity” (PLoS ONE, 2018)
